{"source": "patent US20240335464A1", "about": "“ADMINISTRATION OF STING AGONIST, CHECKPOINT INHIBITORS, AND RADIATION” (Takeda Pharmaceutical Company Limited, priority 2020, published 2024)", "test_system": "EMT6 mouse breast carcinoma syngeneic tumor", "assay": "Study 3: EMT6 orthotopic (mammary fat pad) syngeneic tumor model, time-to-progression analysis", "format": "in vivo, female BALB/c mice", "protocol": "Study 3: EMT6 is a mouse breast carcinoma cell line. EMT6 mouse syngeneic tumor model was generated by orthotopic inoculation with 1.0×10^6 EMT6 cells (cell suspension) in seven to eight week old female BALB/c mice (Envigo Corp., Indianapolis, IN) in the mammary fat pad. When the mean tumor volume reached approximately 110 mm^3, the animals were randomized into one vehicle control and eight treatment groups (n=8/group). Mice were then treated with Compound No. 14, anti-mouse PD-1 (anti-mPD-1) (clone RMP1-14), and/or three fraction doses of 8 Gy of Radiation (8 Gy×3), or the respective control agents (PBS, isotype control antibody, and/or mock radiation) in the following combinations over an 11-day period. • Group 1: vehicle (PBS)+isotype control+mock radiation • Group 2: Compound No. 14 (1 mg/kg)+isotype control+mock radiation • Group 3: Compound No. 14 (0.25 mg/kg)+isotype control+mock radiation • Group 4: vehicle+anti-mPD-1+mock radiation • Group 5: vehicle+isotype control+radiation (8 Gy×3) • Group 6: Compound No. 14 (1 mg/kg)+isotype control+radiation (8 Gy×3) • Group 7: vehicle+anti-mPD-1+radiation (8 Gy×3) • Group 8: Compound No. 14 (1 mg/kg)+anti-mPD-1+radiation (8 Gy×3) • Group 9: Compound No. 14 (0.25 mg/kg)+anti-mPD-1+radiation (8 Gy×3)\nTumor growth and body weight were measured three times per week during the treatment and post-treatment periods. Mice were humanely euthanized once they had reached their humane endpoint. Mice with complete regressions were evaluated until day 74 or day 108.\nStudy 3: A 0.1 mg/mL stock solution of Compound No. 14 was formulated in PBS and administered IV based on exact animal body weight on each day of treatment, using a dosing volume of 10 mL/kg body weight. Final doses received were 0.25 mg/kg or 1.0 mg/kg. Compound No. 14 was administered on a Q3D schedule for 3 doses (Days 12, 15 and 18) in single agent treatment group and in combination treatment groups. Dose formulation of Compound No. 14 was prepared once and utilized for all three dosing days.\nFormulated anti-mPD-1 and isotype control were stored at 4 degree Celsius until subsequent dosing on Days 15 and 18. Anti-mPD-1 or isotype control was administered concurrent with Compound No. 14 or vehicle control on a Q3D schedule for 3 doses (Days 12, 15 and 18) in single agent treatment groups and in combination treatment groups.\nRadiation treatment for Study 3 was performed using focal beam radiation with volumetric image guidance from computed tomography scans SARRP (Small Animal Radiation Research Platform) irradiator (Xstrahl Inc. Suwanee, Ga). Animals received 2.42 Gy/min of radiation and approximately 3.3 min was needed to reach 8 Gy dose delivery. Animals received 8 Gy radiation on days 8, 9 and 10, with the last radiation dose given two days prior to the initiation of dosing with Compound No. 14 and/or anti-mPD-1 or relevant controls on Day 12. Animals were anesthetized during imaging and radiation treatment using 1-2% Isoflurane. For repeated daily radiation treatments, the same treatment plan was applied and adjusted for changes in animal positioning or target alteration over time.\nTumors were measured three times weekly using vernier calipers. Tumor volumes were calculated using standard equation: V=W^2×L/2, where V=volume, W=width, and L=length for the tumor. When mean tumor volumes reached approximately 60 mm^3 for Study 1, 75 mm^3 for Study 2, and 110 mm^3 for Study 3, mice were randomized into eight groups (n=10/group) in Studies 1 and 2, and nine groups (n=8/group) in Study 3. These groups were then dosed with vehicle (PBS), Compound No. 14, Radiation, anti-mPD-1 or isotype control, or combinations of these agents as described in Tables 1a, 2a, and 3a. Tumor size and body weight were measured three times a week for the duration of each study. […]"}
{"smiles": "Nc1ncnc2c1ncn2[C@@H]1O[C@@H]2COP(=O)(S)O[C@@H]3[C@H](O)[C@@H](COP(=O)(S)O[C@H]2[C@H]1F)O[C@H]3n1cc(F)c2c(=O)[nH]cnc21", "note": "(stereo partly shown) [Compound No. 14]", "values": [{"measurement": "Synergy Hazard Ratio (Weibull)", "setting": "Combination Gr 6 [Compound No. 14 (1 mg/kg) + isotype control + radiation (8 Gy × 3)] vs Gr 2 and Gr 5", "result": 0.00194}, {"measurement": "Mice remaining on study beyond day 53", "setting": "Gr 2: Compound No. 14 (1 mg/kg) + isotype control + mock radiation", "result": "no mice"}, {"measurement": "HR (Weibull), time to progression, pairwise comparison to vehicle group (Gr 1)", "setting": "Gr 2: Compound No. 14 (1 mg/kg) IV Q3D×3 + isotype control + mock radiation, TTP = tumor volume reaching 1000 mm^3", "result": 0.485}, {"measurement": "HR (Weibull), time to progression, pairwise comparison to vehicle group (Gr 1)", "setting": "Gr 3: Compound No. 14 (0.25 mg/kg) IV Q3D×3 + isotype control + mock radiation", "result": 0.37}, {"measurement": "HR (Weibull), time to progression, pairwise comparison to vehicle group (Gr 1)", "setting": "Gr 6: Compound No. 14 (1 mg/kg) + isotype control + radiation (8 Gy×3)", "result": 0.00091}, {"measurement": "Mice remaining on study as tumor-free survivors at end of study (Day 108)", "setting": "Group 6: Compound No. 14 (1 mg/kg) + isotype control + 8 Gy×3 Radiation, n=8/group", "result": 5, "unit": "mice"}, {"measurement": "Combination effect on TTP (synergy, in words)", "setting": "Group 6: Compound No. 14 (1 mg/kg) and 8 Gy×3 Radiation with isotype control", "result": "Statistically significant synergy"}]}
